The values that follow come from paper PMC11056319, “Targeting PRMT9-mediated arginine methylation suppresses cancer stem cell maintenance and elicits cGAS-mediated anticancer immunity” (Nature Cancer, 2024).

The test system of the first series is Molm13. The series is described as follows: cells. As to conditions: 1 uM, 4 days, 96 h. Also on record: Molm13 cell viability screen of virtual-screening hits, 4 days of treatment, per cent of control. The protocol:
We performed virtual screening. Briefly, we screened compounds for binding affinity to PRMT9; compounds were from the National Cancer Institute (NCI) and ZINC library (Fig. 4a,b). […] We used doses of 1 and 5 µM in a Molm13 cell-based viability assay (Extended Data Fig. 6a). […] Specifically, we assessed their effects on PRMT9 catalysis (Extended Data Fig. 6b). […] Cells were treated for 4 days with 1 or 5 μM compounds. For each compound, the number represents its library ID. Experiments were triplicated; P values were derived from t tests. b, R493 methylation assay. […] Catalytic activity was assessed by anti-R493 antibody. Synthesized R493me peptide as positive control. c, Catalysis screen of top 20 compounds. PRMT9 protein was pretreated with indicated compound (10 μM), then incubated with PABPC1 peptides and SAM. d, e, Catalytic activity of indicated compounds based on R493 methylation assay (d). Inhibition curves were calculated based on intensity of dots and normalized to DMSO (e). […] LD2 is designed based on NSC641396 (g). Docking model of NSC641396 in the catalytic pocket (f). h, IC50 analysis of LD2 in B-NHL lines. Cells were treated for 4 days with LD2. […] Cells were treated with a dose titration of 0.5–40 μM LD2 for 48 hr. The inhibition activity of LD2 to PRMT9 (right red curve) was evaluated by calculating the normalized PABPC1 R493 methylation signal. The inhibition activity of LD2 to PRMT5 (right blue curve) was evaluated by calculating the normalized SmB’B’ methylation signal (supplementary Fig. 2). k, Vina docking of LD2 with PRMT9, PRMT5, CARM1 or PRMT7 was performed, and the average docking scores (kcal/mol, with standard deviation) were shown. l, Molecular dynamics simulation analyses of LD2 with PRMT9 or PRMT5.
Consider `OC(COc1cccc2ccccc12)CN1CCN(c2ccc(Cl)cc2)CC1` (stereo not drawn) [NSC91397], for which the “% viability” value is 148.7%.

Still in this series, the particulars now being: 5 uM, 4 days, 96 h.
`OC(COc1cccc2ccccc12)CN1CCN(c2ccc(Cl)cc2)CC1` (stereo not drawn) [NSC91397]: the “% viability” value is reported as 145.8%.

The series is the same for the next values; noted with them: Homo sapiens, MOLM-13, 96 h, 4 days.
Take `CO[C@@H]1C[C@](C)(O)Cc2cc3c(c(O)c21)C(=O)c1c(O)cc2c(c1C3=O)O[C@@H]1O[C@@]2(C)[C@H](O)[C@@H](N(C)C)[C@@H]1O` [NSC269148]: the viability at 1 µM was found to be 2.1% and the viability at 5 µM amounted to 1.55%. As for `c1ccc(-c2ccc(-c3nccc4ccccc34)[nH]2)cc1` [NSC116644], the viability at 5 µM was determined as 88.3%. With `O=C(Nc1ccccc1F)Nc1cccc2ccc(O)cc12` [NSC214005], the viability at 1 µM came to 81.3% and the viability at 5 µM turned out to be 72.7%. In the case of `c1ccc(Nc2cccc3c(Nc4ccccc4)cccc23)cc1` [NSC24032], the viability at 1 µM amounted to 120%.

Take `O=C(O)c1cc2ccccc2cc1Nc1ccccc1` [NSC40275]: the viability at 1 µM was found to be 116%. With `NC1=NC(c2ccc(Cl)cc2)N(c2ccc(S(N)(=O)=O)cc2)C(N)=N1` (stereo not drawn) [NSC117268], the viability at 1 µM came out at 90.3%. As for `c1ccc(CSc2nnc3c4ccccc4c4ccccc4c3n2)cc1` [NSC327702], the viability at 1 µM came to 86.4% and the viability at 5 µM is 82.6%. As for `O=C(Nc1ccc2ccccc2c1)c1ccc(Cl)cc1Cl` [NSC158959], the viability at 5 µM was determined as 127%. With `O=C(Nc1cccc(-c2ccccc2)c1)N1CCN(C(=O)Nc2cccc(-c3ccccc3)c2)CC1` [NSC37553], the viability at 1 µM was 96.2%. `Cc1ccc(C2=Nc3ccccc3SC(c3cccc([N+](=O)[O-])c3)C2)cc1` (stereo not drawn) [NSC270737]: the viability at 1 µM was determined as 90.8% and the viability at 5 µM is 15.1%. Regarding `C#Cc1cccc(NC(=O)c2ccc(Cl)cc2Cl)c1` [NSC372769], the viability at 1 µM is 82.8% and the viability at 5 µM amounted to 93.1%.

On to `O=c1cc(-c2cccnc2)oc2c1ccc1ccccc12` [NSC283845], for which the viability at 5 µM was 60.4%. With `Cc1cccc(NC2=C(C#N)C(=O)NC3(CCCC3)S2)c1` [NSC319436], the viability at 1 µM is 84% and the viability at 5 µM was 77.3%. For `CN1C2c3ccccc3C3C4c5ccccc5C(C31)C(C2[N+](=O)[O-])N4C` (stereo not drawn) [NSC137112], the viability at 1 µM was determined as 146% and the viability at 5 µM is 148%.

For `Oc1c(Cl)cc(Cl)cc1/C=N/c1nc(-c2ccc(Cl)cc2)cs1` [NSC328104], the viability at 1 µM is 87.9%. Take `Nc1nc(N)c2cc(Sc3ccc4ccccc4c3)ccc2n1` [NSC305780]: the viability at 1 µM is 12.7% and the viability at 5 µM was determined as 6.56%. On to `Cc1ccc(NC(=O)Nc2nc3ccccc3s2)cc1NC(=O)Nc1nc2ccccc2s1` [NSC319990], for which the viability at 5 µM is 96.9%. With `COc1ccc2c3c([nH]c2c1)[C@H]1C[C@H]2[C@H](C[C@@H](O)[C@H](OC)[C@H]2CO)CN1CC3` [NSC80137], the viability at 1 µM worked out at 82.2% and the viability at 5 µM is 75.6%.

For `OC(COc1cccc2ccccc12)CN1CCN(c2ccccc2)CC1` (stereo not drawn) [NSC91398], the viability at 1 µM is 59.8% and the viability at 5 µM is 60.9%. Turning to `c1cc2c3c(cccc3c1)NC1(CCC3(CC1)Nc1cccc4cccc(c14)N3)N2` [NSC97920], the viability at 1 µM is 59.1% and the viability at 5 µM worked out at 8.91%.

In the case of `Oc1ccc(N=Cc2c(O)ccc3ccccc23)cc1` [NSC111848], the viability at 1 µM came to 93.1% and the viability at 5 µM is 74.1%. In the same order, the values of `Cc1c(Cl)cccc1NC(=O)CC1Sc2ccccc2NC1=O` (stereo not drawn) [NSC634396] are 169% and 118%. As for `Cc1c(O)ccc2c(O)c(NC(=O)c3ccc4c(c3)CCC(C)(C)O4)c(=O)oc12` [NSC5157], the viability at 1 µM stood at 94.6%. For the molecule `Clc1ccc(-c2n[nH]c3c2Cc2ccccc2-3)cc1Cl` [NSC331968], the viability at 1 µM was determined as 62.9% and the viability at 5 µM came to 43.2%.

Regarding `CC(=O)c1sc2c(c1OC(=O)c1ccc(Cl)cc1Cl)c(=O)n(-c1ccccc1)c(=S)n2-c1ccccc1` [NSC671136], the viability at 1 µM turned out to be 71.5% and the viability at 5 µM turned out to be 12.8%. As for `Cc1ccc2c(c1)c1ccc3c(c1n2C)C(=O)C=CC3=O` [NSC661221], the viability at 1 µM is 7.53% and the viability at 5 µM amounted to 7.31%. Consider `Cc1cc(O)c(C(C)C)cc1NC(=O)Nc1cccc2ccccc12` [NSC32673], for which the viability at 1 µM amounted to 90.3% and the viability at 5 µM is 45.8%. Consider `Oc1ccccc1N=Cc1c(O)ccc2ccccc12` [NSC111847], for which the viability at 5 µM amounted to 85.7%. Consider `c1ccc(-c2nc3ccccc3nc2-c2ccc(Sc3ccc(-c4nc5ccccc5nc4-c4ccccc4)cc3)cc2)cc1` [NSC293778], for which the viability at 1 µM worked out at 95.7%. Regarding `CC(=O)OCc1cc(-c2nc3ccccc3nc2O)nn1-c1ccc(Cl)cc1` [NSC339161], the viability at 5 µM amounted to 87.5%.

As to `O=C(Nc1ccccc1Cl)Oc1ccc(-c2ccccc2)cc1` [NSC204321], the viability at 5 µM worked out at 90.1%. As for `O=C(Nc1cccc([N+](=O)[O-])c1)c1ccc2ccccc2c1O` [NSC50648], the viability at 1 µM stood at 81% and the viability at 5 µM was 62.1%. Turning to `C[C@H]1CC[C@@]2(C)[C@@H](CC[C@@H]3[C@@H]2CC[C@]2(C)[C@@H](O)CC[C@@H]32)C1` [NSC21603], the viability at 5 µM was found to be 96.5%. `O=C(Nc1ccc(Nc2ccncc2)cc1)c1ccc(Nc2ccnc3ccc([N+](=O)[O-])cc23)cc1` [NSC146771]: the viability at 1 µM came to 91.1%. For `Oc1ccccc1-c1nc2c3ccccc3c3ccccc3c2[nH]1` [NSC332670], the viability at 1 µM came to 79.2% and the viability at 5 µM is 84.8%.

As to `Oc1ccc2ccccc2c1C=Nc1ccccc1` [NSC111846], the viability at 1 µM came to 77% and the viability at 5 µM stood at 84.6%.

`Cc1ccc(-c2nc(-c3nccc4ccccc34)oc2-c2ccccc2)cc1` [NSC116702]: the viability at 1 µM came to 87.8% and the viability at 5 µM amounted to 150%.

With `CC[C@@]1(O)C(=O)OCc2c1cc1n(c2=O)Cc2cc3ccccc3nc2-1` [NSC94600], the viability at 1 µM was 2.48% and the viability at 5 µM came to 1.54%. The like results for `c1ccc(-c2nc(-c3ccccn3)nc(-c3ccccn3)n2)nc1` [NSC112125] were, in that order, 85.4% and 81.8%.

`Fc1ccc(-c2cc(-c3cccs3)cc(-c3ccccc3)n2)cc1` [NSC246999]: the viability at 5 µM is 98.7%. In the case of `COc1cc(C2NC(=O)C(C#N)=C(Nc3cccc(C)c3)S2)ccc1O` (stereo not drawn) [NSC319435], the viability at 1 µM amounted to 96.8%. In the case of `COc1ccc2c(c1)c1ccc3c(c1n2C)C(=O)C=CC3=O` [NSC641396], the viability at 1 µM turned out to be 2.72% and the viability at 5 µM came to 1.44%. For the molecule `O=C1c2ccccc2-c2nc3ccccc3n21` [NSC252777], the viability at 1 µM turned out to be 77.6% and the viability at 5 µM was determined as 63.7%.

Take `Cc1cc(O)c(C(C)C)cc1N=Cc1cc([N+](=O)[O-])ccc1O` [NSC33472]: the viability at 1 µM amounted to 120%. On to `CC(=O)O[C@H]1CC[C@]2(C)C(=CC[C@H]3[C@H]4C[C@H]5O[C@]6(CC[C@H](C)CN6)[C@H](C)[C@@H]5[C@]4(C)CC[C@@H]32)C1` [NSC96021], for which the viability at 1 µM is 102% and the viability at 5 µM is 87.9%. In the same order, the values of `Clc1ccccc1-c1nc2ccccc2[nH]1` [NSC128751] are 80.4% and 80%. For `CC(=O)O[C@H]1CC[C@@]2(C)[C@@H](CC[C@@H]3[C@@H]2CC(=O)[C@@]2(C)[C@H]3C[C@@H]3CC(C)=CC(=O)[C@@H]32)C1` [NSC59620], the viability at 5 µM worked out at 93.6%. In the case of `O=C(O)C(Cc1c[nH]c2ccccc12)N1C(=O)c2ccccc2C1=O` (stereo not drawn) [NSC401077], the viability at 1 µM amounted to 94.6% and the viability at 5 µM was 75.3%. The like results for `O=C(O)CCC(=O)c1ccc2ccc3cccc4ccc1c2c34` [NSC407628] were, in that order, 94.7% and 100%. For the molecule `O=C(Nc1cccc([N+](=O)[O-])c1)c1cccc(C(=O)Nc2cccc([N+](=O)[O-])c2)c1` [NSC204232], the viability at 1 µM was found to be 110%. As to `Cc1ccc2c(c1)Sc1c(ccc3ccccc13)N2` [NSC40273], the viability at 5 µM was 102%. Consider `Cc1nn(-c2ccccc2)c2c1C(c1ccc([N+](=O)[O-])cc1)C(C#N)=C(N)O2` (stereo not drawn) [NSC298892], for which the viability at 1 µM turned out to be 84.2% and the viability at 5 µM came to 69.1%. Turning to `O=C(Nc1ccccc1-c1ccccc1)C(=O)Nc1ccccc1-c1ccccc1` [NSC338042], the viability at 5 µM came out at 93.1%. In the case of `Cc1c(N2CCCC2)cc2c(c1NC(=O)c1ccccc1Cl)C(C)(C)CC2(C)C` [NSC321496], the viability at 1 µM was determined as 92.4% and the viability at 5 µM was 79.1%. In the case of `O=C(Nc1ccc(C2=NCCCN2)cc1)Nc1ccc(C2=NCCCN2)cc1` [NSC63680], the viability at 5 µM came out at 75.2%. Regarding `O=C(CC1C=Cc2ccccc2N1C(=O)c1ccccc1)c1ccccc1` (stereo not drawn) [NSC116709], the viability at 1 µM was found to be 90.2% and the viability at 5 µM came to 72.7%.

As usually defined, the viability is a read-out of living cells in per cent, often relative to untreated cells.
